Data reported in ChEMBL document CHEMBL1201862, “PubChem BioAssay data set” (2004).
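Tested at 5 concentrations; 48 h exposure; 96-well plates; endpoints linearly interpolated, else capped at highest concentration. Here, GI50 denotes the concentration required for 50% inhibition of growth.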 Activity calls are given as the source filed them. No stated cut-off is given here; in the data, active = GI50 up to about 1.1 µM and inactive = higher.

Experiments:
Assay in all cases: inhibition of tumour cell growth, NCI panel, 48 h
[1] = test system: ACHN
[2] = test system: HT-29
[3] = test system: OVCAR-4
[4] = test system: U-251
[5] = test system: SN12C
[6] = test system: UACC-257
[7] = test system: HCT-116
[8] = test system: NCI/ADR-RES
[9] = test system: SK-MEL-2
[10] = test system: CCRF-CEM
[11] = test system: LOX IMVI
[12] = test system: TK-10
[13] = test system: MOLT-4
[14] = test system: SK-MEL-28
[15] = test system: SNB-19
[16] = test system: A549
[17] = test system: SF-295
[18] = test system: IGROV-1
[19] = test system: NCI-H23
[20] = test system: SK-OV-3
[21] = test system: HCC 2998
[22] = test system: SF-268
[23] = test system: MDA-MB-435
[24] = test system: NCI-H460
[25] = test system: T47D
[26] = test system: HCT-15
[27] = test system: OVCAR-5
[28] = test system: NCI-H226
[29] = test system: Hs-578T
[30] = test system: Malme-3M
[31] = test system: SNB-75
[32] = test system: PC-3
[33] = test system: NCI-H522
[34] = test system: UO-31
[35] = test system: SF-539
[36] = test system: K562
[37] = test system: KM12
[38] = test system: HL-60
[39] = test system: DU-145
[40] = test system: BT-549
[41] = test system: CAKI-1
[42] = test system: M14
[43] = test system: SK-MEL-5
[44] = test system: A498
[45] = test system: MDA-MB-231
[46] = test system: 786-0
[47] = test system: SR
[48] = test system: RXF 393
[49] = test system: EKVX
[50] = test system: HOP-62
[51] = test system: OVCAR-8
[52] = test system: OVCAR-3
[53] = test system: HOP-92
[54] = test system: MCF7
[55] = test system: MDA-N
[56] = test system: COLO 205
[57] = test system: RPMI-8226
[58] = test system: SW-620
[59] = test system: UACC-62

O=C(C[C@@H]1NCCC[C@H]1O)Cn1cnc2cc(Br)c(Cl)cc2c1=O
GI50 [1]: 23.3 nM (active)
GI50 [2]: 22 nM (active)
GI50 [3]: 18.6 nM (active)
GI50 [4]: 25.2 nM (active)
GI50 [5]: < 10 nM (active)
GI50 [6]: 33.6 nM (active)
GI50 [7]: 23 nM (active)
GI50 [8]: 41.6 nM (active)
GI50 [9]: 14.8 nM (active)
GI50 [10]: 19.2 nM (active)
GI50 [11]: < 10 nM (active)
GI50 [12]: 49.1 nM (active)
GI50 [13]: 26.6 nM (active)
GI50 [14]: 27.4 nM (active)
GI50 [15]: 20.4 nM (active)
GI50 [16]: 12.8 nM (active)
GI50 [17]: 24 nM (active)
GI50 [18]: 29.6 nM (active)
GI50 [19]: 19.5 nM (active)
GI50 [20]: < 11.8 nM (active)
GI50 [21]: 45.8 nM (active)
GI50 [22]: 31.5 nM (active)
GI50 [23]: 12 nM (active)
GI50 [24]: 12.7 nM (active)
GI50 [25]: 24.6 nM (active)
GI50 [26]: 27.6 nM
GI50 [27]: < 13.5 nM (active)
GI50 [28]: < 11.5 nM (active)
GI50 [29]: 27.4 nM (active)
GI50 [30]: 31.8 nM (active)
GI50 [31]: 40.3 nM (active)
GI50 [32]: 35.1 nM (active)
GI50 [33]: < 14.7 nM (active)
GI50 [34]: 37.6 nM (active)
GI50 [35]: 23 nM (active)
GI50 [36]: 21.6 nM (active)
GI50 [37]: 17.1 nM (active)
GI50 [38]: 33 nM (active)
GI50 [39]: 25 nM (active)
GI50 [40]: 34.7 nM (active)
GI50 [41]: 58.3 nM (active)
GI50 [42]: 17.8 nM (active)
GI50 [43]: 15.3 nM (active)
GI50 [44]: 32.7 nM (active)
GI50 [45]: 28.4 nM (active)
GI50 [46]: 18.2 nM (active)
GI50 [47]: 14.6 nM (active)
GI50 [48]: 27.7 nM (active)
GI50 [49]: 24.4 nM (active)
GI50 [50]: 27.9 nM (active)
GI50 [51]: < 11.7 nM (active)
GI50 [52]: < 17.6 nM (active)
GI50 [53]: 30.4 nM (active)
GI50 [54]: < 10 nM (active)
GI50 [55]: 13.8 nM (active)
GI50 [56]: 16.5 nM (active)
GI50 [57]: 24.3 nM (active)
GI50 [58]: 25.9 nM (active)

COc1ccc2c(c1)-c1nn(CCN(C)C)c3ccc(C(=O)NCCCN(C)CCCNC(=O)c4ccc5c6c(c7cc(OC)ccc7nc46)NN5CCN(C)C)c(c13)N2
GI50 [1]: 60.7 nM (active)
GI50 [2]: 21.3 nM (active)
GI50 [3]: 35.2 nM (active)
GI50 [4]: < 10 nM (active)
GI50 [5]: 22.5 nM (active)
GI50 [6]: 70.2 nM (active)
GI50 [7]: < 10 nM (active)
GI50 [8]: 1700 nM (inactive)
GI50 [9]: 18.4 nM (active)
GI50 [10]: < 10 nM (active)
GI50 [11]: 19.2 nM (active)
GI50 [12]: 102 nM (active)
GI50 [13]: < 10 nM (active)
GI50 [14]: 56.1 nM (active)
GI50 [15]: 15.9 nM (active)
GI50 [16]: 13.6 nM (active)
GI50 [17]: 67.1 nM (active)
GI50 [18]: 21.5 nM (active)
GI50 [19]: 34.4 nM (active)
GI50 [20]: 86.1 nM (active)
GI50 [21]: 45 nM (active)
GI50 [22]: 153 nM (active)
GI50 [23]: 40.1 nM (active)
GI50 [24]: 18.7 nM (active)
GI50 [25]: 158 nM (active)
GI50 [59]: 69.2 nM (active)
GI50 [26]: 251 nM
GI50 [27]: 126 nM (active)
GI50 [28]: 155 nM (active)
GI50 [29]: 201 nM (active)
GI50 [30]: 106 nM (active)
GI50 [31]: 114 nM (active)
GI50 [32]: 20.8 nM (active)
GI50 [33]: < 10 nM (active)
GI50 [34]: 183 nM (active)
GI50 [35]: < 10 nM (active)
GI50 [36]: 12.8 nM (active)
GI50 [37]: 28.4 nM (active)
GI50 [38]: 204 nM (active)
GI50 [39]: 28.4 nM (active)
GI50 [40]: 138 nM (active)
GI50 [41]: 346 nM (active)
GI50 [42]: 82.2 nM (active)
GI50 [43]: 51.2 nM (active)
GI50 [44]: 85.9 nM (active)
GI50 [45]: 114 nM (active)
GI50 [46]: 31.3 nM (active)
GI50 [47]: 127 nM (active)
GI50 [48]: 36.6 nM (active)
GI50 [49]: 143 nM (active)
GI50 [50]: 31.8 nM (active)
GI50 [51]: 13.3 nM (active)
GI50 [52]: 93.3 nM (active)
GI50 [53]: 47.8 nM (active)
GI50 [54]: 20.2 nM (active)
GI50 [55]: 36.1 nM (active)
GI50 [56]: 16.9 nM (active)
GI50 [57]: 10.5 nM (active)
GI50 [58]: 18 nM (active)
